Assay results from patent publication US20120141491A1, “METHODS AND COMPOSITIONS FOR THE TREATMENT OF CANCERS AND PATHOGENIC INFECTIONS” (priority 2009, published 2012).
“Also recorded” adds a separate entry of the source. Like-named read-outs stand apart in the source and are kept apart here.

Legend:
Type in all cases: cell-based
[1] = test system: Saos-2 osteosarcoma cells expressing GFP-LC3; test: Autophagy response by punctate localization of GFP-LC3 to autophagic vacuoles, fluorescence microscopy; settings: for Activate Autophagy Response: Table 1; for Induction of autophagy: Table 2; for Enhancement of autophagy (GFP-LC3 at autophagic vacuoles) / Stimulation of autophagy compared with amino acid and serum starved cells (FIG. 2G): enriched (Fed) medium; for Stimulation of autophagy compared with amino acid and serum starved cells (FIG. 2G): 100 μM
Protocol: FIGS. 2A-2G. Activation of autophagy by Bcl-XL targeting compounds. The positions of C2 in Site 1 (FIG. 2A), C5 in Site 1 (FIG. 2B), and C8 in Site 2 (FIG. 2C) of Bcl-xl are shown by in silico molecular docking. Saos-2 osteosarcoma cells expressing GFP-LC3 were incubated in enriched (Fed) medium in the presence of C2 (FIG. 2D), C5 (FIG. 2E) and C8 (FIG. 2F) Bcl-targeted compounds. GFP-LC3 is found diffuse throughout the cytosol and nucleus when autophagy is suppressed. Ongoing autophagy can be visualized by the presence of GFP-LC3 at autophagic vacuoles (AVs) that appear as dots (arrows). […] In FIG. 2E, Saos-2 osteosarcoma cells expressing GFP-LC3 were incubated in enriched (Fed) medium in the absence and presence of Bcl-targeted compounds or in medium lacking amino acids and serum (Starved).
FIG. 4A-4F. Activation of autophagy by Bcl-targeted compounds. The localization of GFP-LC3 to autophagic vacuoles was enhanced by […] Bcl-targeted compounds in Saos-2 osteosarcoma cells. The autophagy response in fed Saos2 cells was measured in the absence and presence of anti-Bcl compounds by visualizing the punctate localization of GFP-LC3 (FIGS. 4A-4C) and RFP-GFP-LC3 (FIGS. 4D-4F) to autophagic vacuoles. In untreated fed cells, the GFP-LC3 is localized uniformly throughout the cell. […] Autophagy in cells expressing RFP-GFP-LC3 (FIGS. 4D-4F) was activated with compound B2-1. Structures containing RFP (red, FIG. 4D) and GFP (green, FIG. 4E) are autophagosomes (arrow), while RFP (red, FIG. 4D) structures are autolysosomes (arrowhead).
(§1) FIGS. 5A-5C. Characterization of proBeclin 1 compounds. Upon ranking 100 NCl compounds by in silico docking to Bcl-xl, the autophagy responses were evaluated in fed Saos-2 cells expressing GFP-LC3 (FIG. 5A). […] Cells were maintained in nutrient-rich medium in the absence and presence of Bcl-targeted compounds for 4 hr. The cells were then solubilized, Beclin 1 complex immunoprecipitated, and the Beclin 1 hound proteins identified by Western blotting (FIG. 5C). The IgG-LC is the immunoglobin light chain of the anti-Beclin 1 antibody that was used to immunoprecipitate the complex. The absence of Bcl-xl is indicative of an inhibition of Beclin 1 binding.
This was done in Saos-2 osteosarcoma cells stably expressing the autophagosome marker, GFP-LC3. In fed cells not undergoing autophagy GFP-LC3 is a soluble protein found throughout the cytosol. In amino acid and serum starved cells, autophagy is activated and GFP-LC3 becomes associated with autophagic vacuoles that can be visualize by fluorescence microscopy.
(§2) When autophagy is suppressed, GFP-LC3 distributes uniformly throughout the cellular cytoplasm (FIG. 4A). Autophagy response can be observed by visualizing the punctuate pattern of GFP-LC3 indicative of the presence of autophagic vacuoles. We can also use tandem-labeled LC3, RFP-GFP-LC3 to better assess the dynamics of the autophagy response by visualizing both autophagosomes and autolysosomes (FIG. 4D-4F). […] To further substantiate that the accumulation of GFP-LC3 structures is not due to a blockage of basal autophagy but the positive effects of the compounds on the autophagy response, the autophagy response is validated by quantitative protein turnover measures using radiolabeled amino acids (FIG. 5B). Finally, we determine whether the compound interferes with Beclin 1 binding to Bcl-xl (FIG. 5C) and Bcl-2 as we would suspect if the compound acts through the intended novel mechanism of action.

[2] = test system: Beclin 1/Bcl binding; test: Beclin 1/Bcl binding by immunoprecipitation with anti-Beclin 1 antibodies and Western blotting; settings: for Inhibit Beclin 1 Binding: Table 1; for Beclin 1 binding to Bcl-xl / Bcl proteins: nutrient-rich medium, 4 hr
Text: FIGS. 5A-5C. Characterization of proBeclin 1 compounds. […] Cells were maintained in nutrient-rich medium in the absence and presence of Bcl-targeted compounds for 4 hr. The cells were then solubilized, Beclin 1 complex immunoprecipitated, and the Beclin 1 hound proteins identified by Western blotting (FIG. 5C). The IgG-LC is the immunoglobin light chain of the anti-Beclin 1 antibody that was used to immunoprecipitate the complex.
Autophagy response can be observed by visualizing the punctuate pattern of GFP-LC3 indicative of the presence of autophagic vacuoles. We can also use tandem-labeled LC3, RFP-GFP-LC3 to better assess the dynamics of the autophagy response by visualizing both autophagosomes and autolysosomes (FIG. 4D-4F). […] Finally, we determine whether the compound interferes with Beclin 1 binding to Bcl-xl (FIG. 5C) and Bcl-2 as we would suspect if the compound acts through the intended novel mechanism of action.

[3] = test system: protein degradation; test: Protein degradation by pulse-chase methods using 14C-valine; settings: for Rates of protein degradation (FIG. 5B): 14C-valine pulse-chase, compared to a control compound, n=6; for Stimulate Protein Degradation: Table 1; for Proteolysis, bar coding of FIG. 5A: black bar stimulated, striped bar inhibited
Protocol: as §1, §2

[4] = test system: NeuT cells
Protocol: FIGS. 3A-3E. Effects of Bcl-XL targeted small compounds on the autophagy response and cell survival in NeuT cells. The positions of C4 in Site 1 (FIG. 3A), and C9 in Site 2 (FIG. 3B) of Bcl-xl are shown by in silico molecular docking. NeuT (Her2-positive breast cancer cell line) cells expressing GFP-LC3 were incubated in enriched (Fed) medium in the presence of C4 (FIG. 3C) and C9 (FIG. 3D) Bcl-targeted compounds. GFP-LC3 is found on autophagic vacuole that appear as dots (arrows). In FIG. 3E, the survival of NeuT cells was quantified after 20h of treatment with 0.1-1000 μM of Site 1 (C2 and C4) and Site 2 (C7 and C9) compounds.
Cell survival is suppressed by Bcl2-targeted compounds: Next, we examined the effects of the Bcl-xl targeted compounds C2, C4, C7, and C9 on autophagy and cell death in Her2/Neu-positive NeuT breast carcinoma cells (FIGS. 3A-E).

Structure (SMILES) | Activate Autophagy Response [1] | Induction of autophagy [1] | Inhibit Beclin 1 Binding [2] | Stimulate Protein Degradation [3] | Enhancement of autophagy (GFP-LC3 at autophagic vacuoles) [1] | other results
O=C(O)CCn1c(=O)[nH]c(=O)n(CCC(=O)O)c1=O [NSC11693] | Yes | NSC 11693 Induces autophagy; not tested for the induction of cell death |  |  |  | 
CN(C)CCNNC1CCCN(C)C1 (stereo not drawn) [NSC21689] | Yes |  | No | Yes | activate autophagy | Beclin 1 binding to Bcl-xl / Bcl proteins ([2]; listed as Bx-16): did not; also recorded: do not appear to affect Beclin 1 binding; also recorded: does not inhibit Beclin 1 binding as well as Bx-8; Rates of protein degradation (FIG. 5B) [3]: activate
C1CC2NCCC3NCCC(N1)N32 (stereo not drawn) [NSC81462, Dodecahydro-1,4,7,9b-tetraazaphenalene] | Yes |  | Yes | Yes | stimulate autophagy | Beclin 1 binding to Bcl-xl / Bcl proteins ([2]; listed as Bx-8): inhibited Beclin 1 binding; also recorded: inhibiting Beclin 1 binding; Rates of protein degradation (FIG. 5B) ([3]; listed as Bx-8): elevated; also recorded: stimulate; Proteolysis, bar coding of FIG. 5A [3]: stimulated proteolysis
O=C1/C(=N\Nc2cc(Cl)ccc2O)C(S(=O)(=O)O)=Cc2cc(S(=O)(=O)O)cc(O)c21 [NSC100234, (3E)-3-[(5-chloro-2-hydroxyphenyl)hydrazinyleidene]-5-hydroxy-4-oxonapthalene-2,7-disulfonic acid] | Yes |  | Yes | Yes | stimulate autophagy | Beclin 1 binding to Bcl-xl / Bcl proteins [2]: inhibiting Beclin 1 binding; Rates of protein degradation (FIG. 5B) [3]: stimulate
O=C(c1ccc(Cl)cc1)C(C(c1ccc([N+](=O)[O-])cc1)N1CCCCC1)N1CCCCC1 (stereo not drawn) [NSC150193, 1-(4-chlorophenyl)-3-(4-nitrophenyl)-2,3-di(piperidin-1-yl)propan-1-one] | Yes | NSC 150193 Induces autophagy; not tested for the induction of cell death | Yes | Yes | stimulate autophagy | Beclin 1 binding to Bcl-xl / Bcl proteins [2]: inhibiting Beclin 1 binding; Rates of protein degradation (FIG. 5B) ([3]; listed as B2-7): elevated; also recorded: stimulate; Proteolysis, bar coding of FIG. 5A [3]: stimulated proteolysis
Clc1cc(Cl)c(C[N+]23CN4CN(CN(C4)C2)C3)cc1Cl.[Cl-] [NSC155877, 3,5,7-Triaza-1-axoniaadamantane, 1-(2,4,5-trichlorobenzyl)-, chloride] | Yes |  | No |  |  | 
OC(CCl)CN1CC[N+]2(CC1)CC[N+]1(CCN(CC(O)CCl)CC1)CC2.[Cl-].[Cl-] (stereo not drawn) [NSC166100, 3,12-Bis(3-chloro-2-hydroxypropyl)-3,12-diaza-6,9-diazoniadispiro[5.2.5.2]hexadecane dichloride] | Yes | Induces | No |  |  | Stimulation of autophagy compared with amino acid and serum starved cells (FIG. 2G) [1]: promote autophagy
CN(C)CC(CN1c2ccccc2Sc2ccccc21)N(C)C (stereo not drawn) [NSC169468] | Yes | NSC 169468 Induces autophagy; not tested for the induction of cell death |  |  |  | Stimulation of autophagy compared with amino acid and serum starved cells (FIG. 2G) [1]: stimulated autophagy to levels seen in amino acid and serum starved cells
CC1CC(C)(C)NCCNC(C)CC(C)(C)NCCN1 (stereo not drawn) [NSC175445, 5,5,7,12,12,14-hexamethyl-1,4,8,11-tetrazacyclotetradecane] | Yes | NSC 175445 Induces autophagy; not tested for the induction of cell death | Yes |  | stimulate autophagy | Beclin 1 binding to Bcl-xl / Bcl proteins ([2]; listed as B2-11): inhibited Beclin 1 binding; also recorded: interfere with Beclin 1 binding; Proteolysis, bar coding of FIG. 5A [3]: stimulated proteolysis
CC(=O)C1=C(O)C2(C)c3c(O)c(C)c(O)c(C(C)=O)c3OC2CC1=O (stereo not drawn) [NSC280057] | Yes | Induces autophagy | No |  |  | Induction of cell death ([4]; Table 2, cells not given): causes cell death; Stimulation of autophagy compared with amino acid and serum starved cells (FIG. 2G) ([1]; listed as C10): promote autophagy; also recorded: stimulated autophagy to levels seen in amino acid and serum starved cells
CN1CCN(CCSC2Cc3cc(Cl)ccc3Sc3ccccc32)CC1 (stereo not drawn) [NSC635366] | Yes | Induces autophagy |  | No |  | Induction of cell death [4]: causes cell death; Rates of protein degradation (FIG. 5B) [3]: inhibit protein degradation; Stimulation of autophagy compared with amino acid and serum starved cells (FIG. 2G) ([1]; listed as C8): promote autophagy; also recorded: stimulated autophagy to levels seen in amino acid and serum starved cells; Enhancement of autophagy (GFP-LC3 at autophagic vacuoles) ([1]; listed as Bx19): promote the accumulation of autophagic vacuoles; Enhancement of autophagy (GFP-LC3 at autophagic vacuoles) ([1]; listed as C8): enhanced autophagy
Cl.NC(CSSCC(N)Cc1ccccc1)Cc1ccccc1 (stereo not drawn) [NSC656252] | Yes | Induces autophagy |  |  |  | Induction of cell death ([4]; Table 2, cells not given): causes cell death
